# In patent EP4578857A1, “CRYPTOLEPINE SALT DERIVATIVE, AND PREPARATION METHOD THEREFOR AND USE THEREOF” (Nankai University, priority 2023, dated 2025):
# Read-outs that look alike come from different tables or passages of the source.
# Assays:
# Format in all cases: in vivo
# [1] = tested on: tobacco Mosaic virus (TMV); assay: Anti-TMV activity: living passivation activity test; conditions: for inhibition at 500 µg/mL: Tobacco mosaic virus, read-out: Relative inhibition rate (%) Living passivation activity test; for Relative inhibition rate (%) Living passivation activity test: Treatment dose 500 mg/L, sample mixed with virus juice for 30min, then inoculated on tobacco Xanthi nc, virus 20µg/mL, 3 days
# Protocol: (§1) Determination of anti-tobacco Mosaic virus (TMV) activity by the following procedure:
# (§2) The virus crude extract was centrifuged with polyethylene glycol at twice and refrigerated at 4°C for use. The absorbance of 260nm wavelength was determined by ultraviolet spectrophotometer, and the virus concentration was calculated according to the formula. Virus concentration(mg/ml) = (A260 × dilution ratio)(/E)^0.10 1cm^260nm . [formula]
# (§3) After weighing, cryptolepine salt derivative, ningnanmycin and the original drug of ribavirin were dissolved in DMF to obtain 1×10^5µg/mL mother solution, and then diluted to the required concentration with 1‰ Tween 80 aqueous solution.
# Select the 3-5 leaf stage of tobacco Xanthi nc with uniform growth, mix the test sample agent with the same volume of virus juice to passivate for 30min, friction inoculation, virus concentration 20µg/mL, the leaf was washed with running water after inoculation, repeat 3 times, set 1‰ Tween 80 aqueous solution as control. 3 days later, the number of disease spots was calculated. [formula]
# Anti-tobacco Mosaic virus passivation activity test of all compounds was at a treatment dose of 500µg/mL. The positive control was the commercial anti-plant virus agent viriazole.
# [2] = tested on: tobacco Mosaic virus (TMV); assay: Anti-TMV activity: live protection function; conditions: for TMV activity / antiTMV activity: 500µg/mL, Table 4 (all three modes); for TMV activity: compared with ribavirin; for inhibition at 500 µg/mL: Tobacco mosaic virus, read-out: Relative inhibition rate (%) Live protection function; for antiTMV activity: compared with commercial Ningnanmycin; for Relative inhibition rate (%) Live protection function: Treatment dose 500 mg/L, tobacco Xanthi nc sprayed 24h before inoculation, virus 10µg/mL, disease spots counted after 3 days
# Protocol: as §1, §2, §3
# Select the 3-5 leaf stage of tobacco Xanthi nc with uniform growth, spray the whole plant, repeat each treatment 3 times, and set 1‰ Tween80 aqueous solution as control. 24h later, the leaf surface was coated with emery (500 mesh), the disease venom was dipped with a brush, and the whole leaf surface was gently rubbed twice along the direction of the branch pulse by using the brush, the leaf was supported by palm of hand, the virus concentration was 10µg/mL, and the leaf was washed by water after inoculation. After 3 days, the number of disease spots was recorded and the prevnetion and control effect was calculated.
# [3] = tested on: tobacco Mosaic virus (TMV); assay: Anti-TMV activity: live treatment effect; conditions: for inhibition at 500 µg/mL: Tobacco mosaic virus, 72 h, read-out: Relative inhibition rate (%) Live treatment effect; for Relative inhibition rate (%) Live treatment effect: Treatment dose 500 mg/L, tobacco Xanthi nc inoculated (virus 10µg/mL), then sprayed, disease spots counted after 3 days
# Protocol: as §1, §2, §3
# Select the 3-5 leaf stage of tobacco Xanthi nc with uniform growth, use a brush to vaccinate the virus in the whole leaf, the virus concentration is 10µg/mL, and the leaf was washed with running water after inoculation. After the leaves were dried, the whole plant was sprayed with test sample, repeated 3 times every treatment, and 1‰ Tween 80 aqueous solution was set as control. After 3 days, the number of disease spots was recorded and the prevnetion and control effect was calculated.
# [4] = tested on: rice sheath blight strains; assay: Bactericidal activity test: resistance to rice sheath blight (live pot test); conditions: for pest or weed control at 400 µg/mL: Oryza sativa, 144 h
# Protocol: Bactericidal activity test, the determination procedure is as follows: Test of resistance to rice sheath blight: Select uniformly growing rice seedlings and spray them on the leaves at the set concentration, set a water sprayring group as blank control, every treatment was repeated twice. After 24h, the rice seedlings were inoculated with rice sheath blight strains and placed at room temperature (25±4°C) for normal management after inoculation. The prevention and control effect was investigated by visual inspection 6 days after inoculation.
# [5] = 400mg/L leaf spray on rice seedlings, inoculated after 24h, visual inspection 6 days after inoculation, read-out: Resistance to rice sheath blight (%)/400mg/L
# [6] = read-out: Resistance to rice sheath blight (%)/400mg/L
# [7] = read-out: bactericidal activity against rice sheath blight
# [8] = 400mg/L leaf spray on rice seedlings, inoculated after 24h, visual inspection 6 days after inoculation
Structure (SMILES),inhibition at 500 µg/mL [1] [%],TMV activity [2],inhibition at 500 µg/mL [2] [%],inhibition at 500 µg/mL [3] [%],"pest or weed control at 400 µg/mL [4, 5] [%]","pest or weed control at 400 µg/mL ([4]; live pot test, summary of Table 5 (400mg/L), read-out: bactericidal activity against rice sheath blight) [%]","pest or weed control at 400 µg/mL [4, 6] [%]",antiTMV activity [2],"pest or weed control at 400 µg/mL [4, 7] [%]",Relative inhibition rate (%) Living passivation activity test [1] [%],Relative inhibition rate (%) Live protection function [2] [%],Relative inhibition rate (%) Live treatment effect [3] [%],"Resistance to rice sheath blight (%)/400mg/L [4, 8] [%]"
C[n+]1c2ccccc2c(NC2CCNCC2)c2[nH]c3ccccc3c21 [Example 41],30.6 ± 4,better TMV activity than the ribavirin,40.8 ± 4.7,34.1 ± 2.3,40,,,,,,,,
C[n+]1c2ccccc2c(NCC2CCCNC2)c2[nH]c3ccccc3c21 (stereo not shown) [Example 43],30 ± 2.1,,26.1 ± 1,28.3 ± 0.2,30,,,,,,,,
CN1CCCC(CNc2c3ccccc3[n+](C)c3c2[nH]c2ccccc23)C1 (stereo not shown) [Example 46],46.3 ± 3.5,better TMV activity than the ribavirin,44.7 ± 4,40.1 ± 0.9,30,,,,,,,,
CN1CCC(Nc2c3ccccc3[n+](C)c3c2[nH]c2ccccc23)CC1 [Example 44],35.3 ± 2.1,,27.3 ± 4.4,33.1 ± 0.3,55 ± 5,> 50,,,,,,,
Cc1ccc(S(=O)(=O)n2c3ccc(C#N)cc3c3c2cc2ccccc2[n+]3C)cc1 [Example 8],18.6 ± 1.2,,18.8 ± 4.2,23.1 ± 0.5,,,30,,,,,,
Cc1ccc(S(=O)(=O)n2c3ccc(Cl)cc3c3c2cc2ccccc2[n+]3C)cc1 [Example 5],39.3 ± 2.5,better TMV activity than the ribavirin,46.7 ± 4.1,35.8 ± 4.8,,,55 ± 5,comparable to that of commercial Ningnanmycin,> 50,,,,
Cc1ccc(S(=O)(=O)n2c3ccccc3c3c2cc2cc(Cl)ccc2[n+]3C)cc1 [Example 12],20.3 ± 2.1,,23.4 ± 3.3,19.1 ± 1,,,40,,,,,,
CN1CCC(CNc2c3ccccc3[n+](C)c3c2[nH]c2ccccc23)CC1 [Example 45],25.6 ± 1.1,,30.7 ± 2.6,28.1 ± 0.3,30,,,,,,,,
Cc1ccc(S(=O)(=O)n2c3ccc(I)cc3c3c2cc2ccccc2[n+]3C)cc1.[Cl-] [Example 7],,better TMV activity than the ribavirin,,,,,,,,47.7±3.1,44.5±0.4,43.0±3.5,40±0
Cc1ccc(S(=O)(=O)n2c3ccccc3c3c2cc2ccc(C)cc2[n+]3C)cc1 [Example 16],18.9 ± 0.8,,28.1 ± 4.5,30.1 ± 1.1,,,95 ± 5,,> 95,,,,
C[n+]1c2ccccc2c(NCCCN)c2[nH]c3ccccc3c21.[I-] [Example 33],,better TMV activity than the ribavirin,,,,,,comparable to that of commercial Ningnanmycin,,49.8±3.1,57.9±4.6,51.7±3.6,40±0
Cc1ccc(S(=O)(=O)n2c3ccccc3c3c2cc2ccccc2[n+]3CC2CC2)cc1 [Example 18],40.8 ± 2.9,better TMV activity than the ribavirin,45.6 ± 0.9,38.7 ± 2.4,,,45 ± 5,,> 50,,,,
CCCNc1c2ccccc2[n+](C)c2c1[nH]c1ccccc12 [Example 23],35.2 ± 1.1,,33 ± 2.9,30.1 ± 1,30,,,,,,,,
